Measured values published in US20090054392A1, “NAPHTHYLPYRIMIDINE, NAPHTHYLPYRAZINE AND NAPHTHYLPYRIDAZINE ANALOGS AND THEIR USE AS AGONISTS OF THE WNT-BETA-CATENIN CELLULAR MESSAGING SYSTEM” (Wyeth, priority 2007, published 2009).

Tests used:
Dkk1-LRP5-TCF-Luciferase [1] = tested on: Dkk1-LRP5-TCF-Luciferase
Dkk1-LRP5-TCF-Luciferase [2] = assay: Functional Dkk1-LRP5-TCF-Luciferase Assay in U2OS Cells; conditions: for EC50 / fold induction at 2 µM / fold induction at 20 µM: Homo sapiens, U2OS; for fold induction at 2 µM: read-out: B = TCF ACTIVITY/DMSO CONTROL Fold induction @ 2.0 uM, 2.0 uM compound; for fold induction at 20 µM: read-out: C = TCF ACTIVITY/DMSO CONTROL Fold induction @ 20.0 uM, 20.0 uM compound; for A = MAX FOLD Induction/DMSO CONTROL: maximum fold induction over DMSO control

| Compound | B = TCF ACTIVITY/DMSO CONTROL Fold induction @ 2.0 uM (Dkk1-LRP5-TCF-Luciferase [1]; 2 µM) | C = TCF ACTIVITY/DMSO CONTROL Fold induction @ 20.0 uM (Dkk1-LRP5-TCF-Luciferase [1]; 20 µM) | EC50 (Dkk1-LRP5-TCF-Luciferase [2]) | fold induction at 2 µM (Dkk1-LRP5-TCF-Luciferase [2]) | fold induction at 20 µM (Dkk1-LRP5-TCF-Luciferase [2]) | A = MAX FOLD Induction/DMSO CONTROL (Dkk1-LRP5-TCF-Luciferase [2]) |
| --- | --- | --- | --- | --- | --- | --- |
| 6-{2-[4-(aminomethyl)piperidin-1-yl]pyrimidin-4-yl}-2-naphthyl acetate | 1.435 fold | 1.995 fold |  |  |  |  |
| CN(C)C(=O)NCC1CCN(c2nccc(-c3ccc4ccccc4c3)n2)CC1 [N,N-dimethyl-N′-({1-[4-(2-naphthyl)pyrimidin-2-yl]piperidin-4-yl}methyl)urea] |  |  | 4.03 µM | 1.12 | 2.36 | 1.690 fold |
| c1ccc2cc(-c3ccnc(N4CC[C@@H](N5CCN6CCCCC6C5)C4)n3)ccc2c1 (stereo partly drawn) [2-{(3R)-1-[4-(2-naphthyl)pyrimidin-2-yl]pyrrolidin-3-yl}octahydro-2H-pyrido[1,2-a]pyrazine] |  |  |  | 1.3 |  |  |
| O=C(N[C@H]1CCN(c2nccc(-c3ccc4ccccc4c3)n2)C1)C(F)(F)F [2,2,2-trifluoro-N-{(3S)-1-[4-(2-naphthyl)pyrimidin-2-yl]pyrrolidin-3-yl}acetamide] |  |  | 25.9 µM | 1.59 | 1.66 | 3.620 fold |
| CCN(CCO)[C@H]1CCN(c2nccc(-c3ccc4ccccc4c3)n2)C1 [2-(ethyl{(3S)-1-[4-(2-naphthyl)pyrimidin-2-yl]pyrrolidin-3-yl}amino)ethanol] |  |  | 3.89 µM | 1.42 | 5.58 | 6.695 fold |
| COC(=O)N1CCCN(c2nccc(-c3ccc4ccccc4c3)n2)CC1 [methyl 4-[4-(2-naphthyl)pyrimidin-2-yl]-1,4-diazepane-1-carboxylate] |  |  | 30 µM |  | 1.88 | 1.930 fold |
| O=C(N1CCOCC1)N1CC[C@H](Nc2nccc(-c3ccc4ccccc4c3)n2)C1 [N-[(3S)-1-(morpholin-4-ylcarbonyl)pyrrolidin-3-yl]-4-(2-naphthyl)pyrimidin-2-amine] |  |  |  | 1.12 | 1.94 |  |
| CN(c1nccc(-c2ccc3ccccc3c2)n1)C1CCN(C(=O)OC(C)(C)C)CC1 [tert-butyl 4-{methyl[4-(2-naphthyl)pyrimidin-2-yl]amino}piperidine-1-carboxylate] |  |  |  | 0.98 | 1.92 |  |
| CN1C[C@@H]2C[C@H]1CN2[C@@H]1CCN(c2nccc(-c3ccc4ccccc4c3)n2)C1 [(1S,4S)-2-methyl-5-{(3R)-1-[4-(2-naphthyl)pyrimidin-2-yl]pyrrolidin-3-yl}-2,5-diazabicyclo[2.2.1]heptane] |  |  |  | 1.5 |  |  |
| c1ccc2cc(-c3ccnc(NC4CCCNCC4)n3)ccc2c1 (stereo not drawn) [N-[4-(2-naphthyl)pyrimidin-2-yl]azepan-4-amine] |  |  | 16.1 µM | 1.11 | 4.87 | 6.080 fold |
| NC(=O)N1CC[C@H](Nc2nccc(-c3ccc4ccccc4c3)n2)C1 [(3S)-3-{[4-(2-naphthyl)pyrimidin-2-yl]amino}pyrrolidine-1-carboxamide] |  |  | 1.52 µM | 2.05 | 2.94 | 2.750 fold |
| NC(=S)C1CCN(c2nccc(-c3ccc4ccccc4c3)n2)CC1 [1-[4-(2-naphthyl)pyrimidin-2-yl]piperidine-4-carbothioamide] |  |  |  | 1.74 | 1.99 | 2.070 fold |
| NC(=O)NCCC1CCN(c2nccc(-c3ccc4ccccc4c3)n2)CC1 [N-(2-{1-[4-(2-naphthyl)pyrimidin-2-yl]piperidin-4-yl}ethyl)urea] |  |  |  |  |  | 1.112 fold |
| CN(C)C(=O)N1CCC(N(C)c2nccc(-c3ccc4ccccc4c3)n2)CC1 [N,N-dimethyl-4-{methyl[4-(2-naphthyl)pyrimidin-2-yl]amino}piperidine-1-carboxamide] |  |  |  | 1.37 | 0.68 |  |
| ClCC1CCN(c2nccc(-c3ccc4ccccc4c3)n2)C1 (stereo not drawn) [2-[3-(chloromethyl)pyrrolidin-1-yl]-4-(2-naphthyl)pyrimidine] |  |  |  | 1.32 | 0.49 |  |
